The record followed here is patent US20140194477A1, “KINASE PROTEIN BINDING INHIBITORS” (Roswell Park Cancer Institute, priority 2011, published 2014).

Series [1] in a line: 7-day single-dose MTD toxicologic study of Y15, oral gavage, CD-1 mice. Format: in vivo. The following applies: both sexes, CD-1, mouse, in vivo, po. On the procedure:
(§1) • A 7-day, single-dose maximum tolerated dose toxicologic study of the chemical 1,2,4,5-Benzenetetramine tetrahydrochloride (Y-15) was performed in CD-1 mice.
(§2) • The chemical 1,2,4,5-Benzenetetramine tetrahydrochloride (Y-15) was the test article. Y-15 is a chemical grade compound available through Sigma-Aldrich. The test article was prepared in phosphate buffered saline (PBS). The test article was prepared by the sponsor and delivered to the study director prior to the study. The test article was stored in the freezer (0° C.), protected from light.
(§3) • The CD-1 [Hsd:ICR(CD-1)] albino mouse was used. The CD-1 mouse is conventionally used in toxicity tests to provide information on which human hazards can be judged, and is one of the choices of species preferred by regulatory agencies. Mice were obtained from Harlan (Frederick, Md.). • Mice were acclimated for a minimum of 2 days prior to testing. […] mice, nulliparous and non-pregnant, were used. Normal weight gain, appearance and behavior were factors used to select healthy mice for testing. Only naive animals were used. Mice were 4-7 weeks old, weighed 22-34 grams (males) and 19-24 grams (females), and were in good health at the start of the study. Mice were 5-8 weeks old, weighed 23-36 grams (males) and 20-25 grams (females) at the conclusion of the study. • Mice were randomly assigned to 8 experimental groups consisting of 3 males and 3 females which received increasing doses of the chemical Y-15. Mice were identified via cage cards, tail markings, and ear punch. Mouse identification codes contained information regarding experimental group (A=15 mg/kg dose group, B=30 mg/kg dose group, C=60 mg/kg dose group, D=90 mg/kg dose group, E=120 mg/kg dose group, F=150 mg/kg dose group, G=200 mg/kg dose group, and H=250 mg/kg dose group), sex (M=male, F=female), and animal number (1-3). Mice were fed autoclaved Harlan-Teklad sterilizable 7012 mouse/rat diet ad libitum. The feed is routinely analyzed by the manufacturer for nutritional components and environmental contaminants. Tap water acidified to a pH of 2.5-3.5 was provided in autoclaved water bottles ad libitum. Municipal water supply is analyzed by the Bureau Veritas Consumer Product Services of Buffalo, NY on an annual basis. […]
(§4) • The test article 1,2,4,5-Benzenetetramine tetrahydrochloride (Y15) was prepared in PBS and administered orally (PO) via orogastric gavage as a single dose on day 0 in the morning. […] Dosages were calculated on a “per mouse” basis, not on a mg/kg basis. […]

The test system of the next series is CD-1 mice. The series is described as above. Format: in vivo. Here is the method: as §1, §2, §3, §4

The structures appear in SMILES notation.

In turn, `Cl.Cl.Cl.Cl.Nc1cc(N)c(N)cc1N` [Y15, 1,2,4,5-benzenetetraamine tetrahydrochloride] had an MTD at 7 days in series [1] of 200 mg/kg. Moreover, the “maximal tolerated dose (summary statement)” value with CD-1 mice (delivery once /week, duration 7 days) is listed as 250 mg/kg. The “toxicity findings, other dose groups” value in the series with CD-1 mice (single oral gavage dose, 15-200 mg/kg groups) is given as “no mortality, adverse clinical signs, or decrement in body weight greater than 10%”. Moreover, the “mortality, highest dose group” value in the series with CD-1 mice (single oral gavage dose, group H 250 mg/kg) was “mortality was seen”.
